Laboratory results published in patent US20060069110A1, “Substituted heterocyclic compounds and methods of use” (priority 2004, published 2006).

What follows are molecules tested on THP1 cells (LPS induced TNF release) (assay: Lipopolysaccharide-Activated THP1 Cell TNF Production Assay). Details: Homo sapiens, THP-1; THP1 cells, bacterial LPS, secreted TNF-α after 3 h at 37° C.; read-out: IC50 values in the THP1 cell assay (LPS induced TNF release).
Assay type: cell-based
How it was run: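 THP1 cells at 1E6/mL were treated with 3-fold serial compound dilutions and LPS (1 μg/mL stock) for 3 h at 37 °C. Secreted TNF-α was quantified by electrochemiluminescent sandwich immunoassay. Percent of DMSO control versus concentration was fitted to a 4-parameter equation.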

Compound	IC50
C[C@H](N)c1cccc(C[C@H](C)Nc2nccc(N(C)c3ccnc(-c4ccccc4)n3)n2)c1 [Example 40, N^2-((S)-1-(3-((S)-1-Aminoethyl)phenyl)propan-2-yl)-N^4-methyl-N^4-(2-phenyl-pyrimidin-4-yl)pyrimidine-2,4-diamine]	≤ 20 µM
C[C@H](Nc1nccc(N(C)c2ccnc(-c3ccccc3)n2)n1)c1cccc(CCC(=O)O)c1 [Example 18, (S)-3-(3-(1-(4-(Methyl(2-phenylpyrimidin-4-yl)amino)pyrimidin-2-ylamino)-ethyl)phenyl)propanoic acid]	≤ 20 µM
CC(C)n1cc(N(C)c2ccnc(N[C@@H](C)Cc3cccc(CN)c3)n2)cc(-c2ccccc2)c1=O [5-((2-(((1S)-2-(3-(aminomethyl)phenyl)-1-methylethyl)amino)-4-pyrimidinyl)(methyl)amino)-1-(1-methylethyl)-3-phenyl-2(1H)-pyridinone]	≤ 20 µM
CN(c1ccnc(NCCc2cccnc2)n1)c1ccnc(-c2ccc(F)cc2)n1 [Example 73, N^4-(2-(4-Fluorophenyl)pyrimidin-4-yl)-N^4-methyl-N^2-(2-(pyridin-3-yl)ethyl)-pyrimidine-2,4-diamine]	≤ 20 µM
CN(c1ccnc(NCCc2cccnc2)n1)c1ccnc(-c2cccs2)n1 [Example 79, N^4-Methyl-N^2-(2-(pyridin-3-yl)ethyl)-N^4-(2-(thiophen-2-yl)pyrimidin-4-yl)-pyrimidine-2,4-diamine]	≤ 20 µM
CNC(=O)c1cnc(-c2ccccc2)nc1Nc1ccnc(N[C@@H](C)Cc2cccc(CN)c2)n1 [(S)-4-(2-(1-(3-(aminomethyl)phenyl)-propan-2-ylamino)pyrimidin-4-ylamino)-N-methyl-2-phenylpyrimidine-5-carboxamide]	≤ 20 µM
CN(c1ccnc(NC2CCNCC2)n1)c1ccnc(-c2ccccc2)n1 [Example 16, N^4-Methyl-N^4-(2-phenylpyrimidin-4-yl)-N^2-(piperidin-4-yl)pyrimidine-2,4-diamine]	≤ 20 µM
CN(c1ccnc(NC2CCN(C(=O)CN)CC2)n1)c1ccnc(-c2ccccc2)n1 [Example 43, 2-Amino-1-(4-(4-(methyl(2-phenylpyrimidin-4-yl)amino)pyrimidin-2-ylamino)-piperidin-1-yl)ethanone]	≤ 20 µM
CN(c1ccnc(N[C@H](Cc2ccccc2)CN2CCOCC2)n1)c1ccnc(-c2ccccc2)n1 [Example 53, (R)-N^4-methyl-N^2-(3-morpholino-1-phenylpropan-2-yl)-N^4-(2-phenylpyrimidin-4-yl)pyrimidine-2,4-diamine]	≤ 20 µM
C[C@@H](Cc1cccc([C@@H](C)N)c1)Nc1nccc(N(C)c2c[nH]c(=O)c(-c3ccccc3)c2)n1 [5-((2-((S)-1-(3-((R)-1-Aminoethyl)phenyl)propan-2-ylamino)pyrimidin-4-yl)-(methyl)amino)-3-phenylpyridin-2(1H)-one]	≤ 20 µM
CN(c1ccnc(NC(C)(C)Cc2ccccc2)n1)c1ccnc(-c2ccccc2)n1 [Example 6, N^4-Methyl-N^2-(2-methyl-1-phenylpropan-2-yl)-N^4-(2-phenylpyrimidin-4-yl)pyrimidine-2,4-diamine]	≤ 20 µM
CN(c1ccnc(N[C@@H](CN)Cc2ccccc2)n1)c1ccnc(-c2ccccc2)n1 [Example 48, (R)-N^2-(1-Amino-3-phenylpropan-2-yl)-N^4-methyl-N^4-(2-phenylpyrimidin-4-yl)pyrimidine-2,4-diamine]	≤ 20 µM

Next, values leading:

IC50	Compound
≤ 20 µM	COc1ncc(N(C)c2ccnc(NCCc3ccccc3)n2)cc1-c1ccccc1 [Example 172, N^4-(6-Methoxy-5-phenylpyridin-3-yl)-N^4-methyl-N^2-phenethylpyrimidine-2,4-diamine]
≤ 20 µM	CN(c1cccc(-c2cc(F)cc(F)c2)n1)c1ccnc(NCCc2ccccc2)n1 [Example 143, N^4-(6-(3,5-Difluorophenyl)pyridin-2-yl)-N^4-methyl-N^2-phenethylpyrimidine-2,4-diamine]
≤ 20 µM	CN(c1ccnc(NCCc2ccccc2Cl)n1)c1nccc(-c2ccccc2)n1 [Example 185, N^2-(2-Chlorophenethyl)-N^4-methyl-N^4-(4-phenylpyrimidin-2-yl)pyrimidine-2,4-diamine]
≤ 20 µM	CC(=O)N1CCC(Nc2nccc(N(C)c3c[nH]c(=O)c(-c4ccccc4)c3)n2)CC1 [Example 167, 5-((2-(1-Acetylpiperidin-4-ylamino)pyrimidin-4-yl)(methyl)amino)-3-phenyl-pyridin-2(1H)-one]
≤ 20 µM	C[C@@H](Cc1cccc(CN)c1)Nc1nccc(N(C)c2ccnc(-c3ccc(F)cc3)n2)n1 [Example 87, (S)-N^2-(1-(3-(Aminomethyl)phenyl)propan-2-yl)-N^4-(2-(4-fluorophenyl)pyrimidin-4-yl)-N^4-methylpyrimidine-2,4-diamine]
≤ 20 µM	CC(Cc1cccc(CO)c1)Nc1nccc(N(C)c2cc(Cl)nc(-c3ccccc3)c2)n1 (centres unmarked) [Example 163, (3-(2-(4-((2-Chloro-6-phenylpyridin-4-yl)(methyl)amino)pyrimidin-2-ylamino)-propyl)phenyl)methanol]
≤ 20 µM	CN(c1cccc(-c2ccccc2C(F)(F)F)n1)c1ccnc(NCCc2ccccc2)n1 [Example 130, N^4-Methyl-N^2-phenethyl-N^4-(6-(2-(trifluoromethyl)phenyl)pyridin-2-yl)-pyrimidine-2,4-diamine]
≤ 20 µM	C[C@@H](Cc1cccc([C@@H](C)N)c1)Nc1nccc(N(C)c2cc(-c3ccccc3)c(=O)n(C)c2)n1 [Example 179, 5-((2-((S)-1-(3-((R)-1-Aminoethyl)phenyl)propan-2-ylamino)pyrimidin-4-yl)(methyl)amino)-1-methyl-3-phenylpyridin-2(1H)-one]
≤ 20 µM	Clc1ccccc1CCNc1nccc(Nc2cc(-c3ccccc3)c(Cl)nn2)n1 [Example 183, N^2-(2-Chlorophenethyl)-N4-(6-chloro-5-phenylpyridazin-3-yl)pyrimidine-2,4-di-amine]
≤ 20 µM	C[C@@H](Cc1cccc(CN)c1)Nc1nccc(N(C)c2ccnc(-c3ccc(F)cc3F)n2)n1 [Example 91, N^2-((S)-1-(3-(Aminomethyl)phenyl)propan-2-yl)-N^4-(2-(2,4-difluorophenyl)-pyrimidin-4-yl)-N^4-methylpyrimidine-2,4-diamine]
≤ 20 µM	CC(Cc1cccc(CN)c1)Nc1nccc(N(C)c2cc(Cl)nc(-c3ccccc3)c2)n1 (centres unmarked) [Example 164, N^2-(1-(3-(Aminomethyl)phenyl)propan-2-yl)-N^4-(2-chloro-6-phenylpyridin-4-yl)-N4-methylpyrimidine-2,4-diamine]
≤ 20 µM	CN(c1cccc(-c2ccccc2Cl)n1)c1ccnc(NCCc2ccccc2)n1 [Example 136, N^4-(6-(2-Chlorophenyl)pyridin-2-yl)-N^4-methyl-N^2-phenethylpyrimidine-2,4-diamine]
≤ 20 µM	C[C@@H](Cc1cccc(CN)c1)Nc1nccc(N(C)c2cc(-c3ccccc3)c(=O)n(C)c2)n1 [Example 178, (S)-5-((2-(1-(3-(Aminomethyl)phenyl)propan-2-ylamino)pyrimidin-4-yl)(methyl)-amino)-1-methyl-3-phenylpyridin-2(1H)-one]
≤ 20 µM	CN(c1cccc(-c2cccc(Cl)c2)n1)c1ccnc(NCCc2ccccc2)n1 [Example 135, N^4-(6-(3-chlorophenyl)pyridin-2-yl)-N^4-methyl-N^2-phenethylpyrimidine-2,4-diamine]
